According to patent US20020054880A1, “Anti-inflammatory, tolerogenic and immunoinhibiting properties of carbohydrate binding-peptides” (priority 1992, published 2002):
Like-named read-outs stand apart in the source and are kept apart here.

What was measured:
asialoagalactofetuin = target: T1, asialoagalactofetuin (Bos taurus, UniProt P12763); conditions: ACS2P1-biotin 10 μg/ml; glycoprotein 3 μg/ml; n=3
T1 sequence (P12763 19-359): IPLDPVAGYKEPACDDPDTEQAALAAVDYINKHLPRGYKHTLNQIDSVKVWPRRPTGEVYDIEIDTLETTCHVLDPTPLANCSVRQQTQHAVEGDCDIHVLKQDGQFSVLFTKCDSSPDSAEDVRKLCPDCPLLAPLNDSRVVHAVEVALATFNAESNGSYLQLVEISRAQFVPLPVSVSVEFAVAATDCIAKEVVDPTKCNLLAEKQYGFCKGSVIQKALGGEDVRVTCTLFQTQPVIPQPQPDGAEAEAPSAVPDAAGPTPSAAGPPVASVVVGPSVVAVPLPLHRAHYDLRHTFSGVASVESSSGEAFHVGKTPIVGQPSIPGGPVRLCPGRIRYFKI
Excerpt: (§1) The reaction was terminated by removing the mixture from the IODO-GEN tube and the iodinated peptide was purified on a Sephadex G-25 column (1×15 cm equilibrated with PBS).

asialofetuin = target: T2, asialofetuin (Bos taurus, UniProt P12763); conditions: ACS2P1-biotin 10 μg/ml; glycoprotein 3 μg/ml; n=3
T2 sequence (P12763 19-359): T1 sequence (P12763 19-359)
Excerpt: as §1

fetuin = fetuin (Bos taurus, UniProt P12763)
Excerpt: as §1

[1] = target: αNeuAc(2-3)βGal(1-3)βGlcNAc-BSA (1-4) αFuc (Bos taurus, UniProt P02769); conditions: SLe^a(C19.9); conjugate 50 μg/mL; 0.1 μg ACS2P1-biotin, 1 hour
Chain of αNeuAc(2-3)βGal(1-3)βGlcNAc-BSA (1-4) αFuc (P02769 25-607): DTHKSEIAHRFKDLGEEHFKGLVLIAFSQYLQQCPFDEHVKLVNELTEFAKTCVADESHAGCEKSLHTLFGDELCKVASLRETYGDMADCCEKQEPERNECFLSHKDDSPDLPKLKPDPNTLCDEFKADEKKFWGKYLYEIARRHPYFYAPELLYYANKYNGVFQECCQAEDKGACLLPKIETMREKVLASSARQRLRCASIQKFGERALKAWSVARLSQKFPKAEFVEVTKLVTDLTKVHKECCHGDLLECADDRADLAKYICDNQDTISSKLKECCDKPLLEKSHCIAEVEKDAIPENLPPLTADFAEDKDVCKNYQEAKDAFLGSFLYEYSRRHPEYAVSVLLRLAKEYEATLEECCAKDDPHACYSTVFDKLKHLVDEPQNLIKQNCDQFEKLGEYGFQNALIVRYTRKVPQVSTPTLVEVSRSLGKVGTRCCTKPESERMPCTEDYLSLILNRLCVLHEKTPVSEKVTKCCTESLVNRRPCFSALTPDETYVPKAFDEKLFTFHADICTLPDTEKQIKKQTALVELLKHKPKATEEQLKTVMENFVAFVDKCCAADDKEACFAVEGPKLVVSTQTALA
Description: (§2) Binding assays were carried out essentially as described above using microtiter wells that were coated with 50 μl of BSA glycoconjugate (50 μg/ml) in 50 mM sodium phosphate buffer (pH 6.8) containing 5 mM MgCl2 nd 15 mM NaN3 for 16 hours at 4° C. The solution was removed by aspiration and replaced with 100 μl of 1% BSA in PBS containing 0.05% Tween 20 (PBST) and incubated at room temperature for an additional 2-3 hours. […] After incubating for 1 hour, the binding reaction was stopped by aspirating the solutions and the plate was washed with PBST (4×300 μl). Avidin-peroxidase (100 μl of a 1/3000 dilution of a 1 mg/ml solution in PBST) was added and incubated for an additional 1 hour. After washing the wells as described above, the substrate solution (1 mM ABTS in 5 mM citrate buffer, pH 4.2, containing 0.1% hydrogen peroxide, v/v) was added and the plates were incubated for 30 minutes. Binding assays for each BSA conjugate were done in triplicate and background binding was measured in wells coated with BSA only.

[2] = target: αNeuAc(2-3)βGal(1-3)βGlcNAc-BSA (Bos taurus, UniProt P02769); conditions: SLe^c; conjugate 50 μg/mL; 0.1 μg ACS2P1-biotin, 1 hour
Chain of αNeuAc(2-3)βGal(1-3)βGlcNAc-BSA (P02769 25-607): as above
Description: as §2

[3] = target: αNeuAc(2-3)βGal(1-4)βGlcNAc-BSA (1-3) αFuc (Bos taurus, UniProt P02769); conditions: SLe^x; conjugate 50 μg/mL; 0.1 μg ACS2P1-biotin, 1 hour
Chain of αNeuAc(2-3)βGal(1-4)βGlcNAc-BSA (1-3) αFuc (P02769 25-607): as above
Description: as §2

[4] = target: αNeuAc(2-3)βGal(1-4)βGlcNAc-BSA (Bos taurus, UniProt P02769); conditions: conjugate 50 μg/mL, 0.1 μg ACS2P1-biotin, 1 hour
Chain of αNeuAc(2-3)βGal(1-4)βGlcNAc-BSA (P02769 25-607): as above
Description: as §2

[5] = target: PT immobilized in microtiter wells (Bordetella pertussis, UniProt P04978+P04979)
Chain of PT immobilized in microtiter wells (P04978 whole entry, looked up): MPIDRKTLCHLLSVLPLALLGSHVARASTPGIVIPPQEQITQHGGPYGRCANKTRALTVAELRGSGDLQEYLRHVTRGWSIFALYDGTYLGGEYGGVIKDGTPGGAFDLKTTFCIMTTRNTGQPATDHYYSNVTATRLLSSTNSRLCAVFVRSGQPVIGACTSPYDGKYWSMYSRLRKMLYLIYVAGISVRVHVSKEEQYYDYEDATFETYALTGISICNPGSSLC
Chain of PT immobilized in microtiter wells (P04979 whole entry, looked up): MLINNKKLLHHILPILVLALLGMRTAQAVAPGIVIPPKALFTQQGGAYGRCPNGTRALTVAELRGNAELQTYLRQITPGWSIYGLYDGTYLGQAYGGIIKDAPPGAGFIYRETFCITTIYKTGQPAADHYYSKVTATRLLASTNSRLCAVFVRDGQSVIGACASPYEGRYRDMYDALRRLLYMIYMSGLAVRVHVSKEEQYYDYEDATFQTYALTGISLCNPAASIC

BIOTIN-PQEQITQHGSPYGRC-CO—NH2 [ACS2P1-b]
binding to asialoagalactofetuin relative to fetuin (asialoagalactofetuin): 93±18% | binding to asialofetuin relative to fetuin (asialofetuin): 45±9% | direct binding of biotinylated peptide to fetuin, in words (fetuin): concentration-dependent binding | reduction of binding of the peptide to fetuin by extensive iodination (IODO-GEN) (fetuin; iodinated vs underivatized peptide, 10 μg/ml, n=3): 58±3% | % Binding Relative to Fetuin of ACS2P1-b (n = 3) [1]: 84 ± 14% | % Binding Relative to Fetuin of ACS2P1-b (n = 3) [2]: 70 ± 4% | % Binding Relative to Fetuin of ACS2P1-b (n = 3) [3]: 84 ± 3% | % Binding Relative to Fetuin of ACS2P1-b (n = 3) ([4]; SLacNAc (table row r10)): 117 ± 12% | % Binding Relative to Fetuin of ACS2P1-b (n = 3) ([4]; SLacNAc (table row r12)): 94 ± 2% | direct binding of biotinylated peptide to PT immobilized in microtiter wells, in words [5]: concentration-dependent binding
